From patent publication US12642776B2, “Anticoccidial composition comprising stilbene-based compound, and use thereof” (CJ CHEILJEDANG CORPORATION, priority 2020, dated 2026)
Marks after values point to notes of the source that are not given here.

What was measured:
Eimeria tenella = experiment: In vivo anticoccidial efficacy evaluation in broilers challenge-inoculated with Eimeria tenella; parameters: species or system Ross broilers; key to ACI: ACI out of 200 points; higher = better; ≥160 very excellent; Lesion index / Oocyst index: scale not given here; conditions: for Survival rate after challenge inoculation (%): Eimeria tenella-infected broilers, 10,000 oocysts oral, up to 8th day after challenge; for Survival rate after challenge inoculation (%) / BWG after challenge inoculation (g/d) / ACI / Lesion score / Oocyst index / Lesion index / Daily weight gain compared to negative control group (RWG, %): feed with salinomycin 60 ppm, resveratrol 125 ppm or pterostilbene 125 ppm; for BWG after challenge inoculation (g/d) / anticoccidial index: Eimeria tenella-infected broilers; for BWG after challenge inoculation (g/d): before challenge to 7th day after; for anticoccidial index: Table 5; for ACI: anticoccidial index by Equation 2, out of 200 points; for Lesion score: appendix lesion, scale 0-4, 8th day after challenge; for Oocyst index: index from oocyst excretion (%) compared to infected negative control group; for Lesion index: lesion score x 10; for Daily weight gain compared to negative control group (RWG, %): relative to non-infected negative control group; for anticoccidial efficacy compared with salinomycin: comparison of anticoccidial index with salinomycin treatment group
Method: An in vivo anticoccidial efficacy evaluation test was performed in an animal experiment facility in Gyeongsangnam-do, South Korea. One-day-old female Ross broilers were individually weighed and randomly divided into groups to use in an experiment. Matters and conditions for experimental design were described in Table 2.
A breeding farm was managed according to the Korean poultry breeding management guidelines. Cages and the breeding farm were cleaned and disinfected before starting the test. The temperature of […] and the humidity of 40 to 50% of the breeding farm were maintained, and it was continuously monitored. General feed was fed according to the nutritional requirements of broilers, and the mixing ratio was described in Table 3.
To the general feed (Table 3), each material (salinomycin (CAS No. 53003-10-4), resveratrol (sigma) or pterostilbene (sigma) was added at a concentration described in Table 4 below, respectively, and was self-mixed.
Antibiotics and supplements were not used in general feed and mixed feed, and no anticoccidial agent other than each material was added. Broilers were fed ad libitum throughout the experiment period. After putting 6 1-day-age broilers in cages randomly placed for each of the control group or test group and breeding, general feed was fed for 14 days, and then the mixed feed prepared above was ingested by dividing by control group or test group.
Coccidiosis induction was performed by oral inoculation (challenge inoculation) in an oral tube type of 10,000 oocysts (eggs) with over 90% mature (sporulation) Eimeria tenella per one individual to 21-day-old broilers.
The anticoccidial efficacy by test group designed in Example 1-2 above was shown as an anticoccidial index (ACI), and the anticoccidial index was calculated by Equation 2 below. The ACI score is out of 200 points, and the higher the ACI score, the more excellent the anticoccidial ability, and when it is 120 points or more to less than 140 points, it is determined that it is effective as an anticoccidial material, and when it is 140 points or more to less than 160 points, it is determined that it is excellent as an anticoccidial material, and when it is 160 points or more, it is determined that the anticoccidial effect is very excellent (Luis Miguel De Pablos et al., Anticoccidial activity of maslinic acid against infection with Eimeria tenella in chickens, Parasitol Res, 2010). Anticoccidial index(ACI)=(survival rate after challenge inoculation (%))+(daily weight gain compared to negative control group(RWG, %))−(lesion score×10)−(fecal oocyst excretion amount index) (Equation 2)
1) Survival rate: the number of dead individuals was recorded daily, and post mortem autopsy was performed to determine a cause of mortality, and the number of individuals who died due to causes other than coccidiosis was excluded. The survival rate (%) up to the 8th day after challenge inoculation was used for anticoccidial index calculation. The measured survival rate was described in Table 5 below.
2) Daily weight gain: body weight was measured for each cage before challenge inoculation with a protozoan into an individual and at the 7th day after challenge inoculation, and the difference was divided by the number of days to calculate the daily weight gain (ADG, g/d). ‘Daily weight gain compared to the negative control group (RWG, %)’ which was calculated by dividing the daily weight gain (ADG, average daily gain; g/d) of each experimental group by the weight gain (ADG, g/d) of the non-infected negative control group and multiplying by 100 was used for anticoccidial index calculation. The daily weight gain (ADG, g/d) measured in each control group and test group and the daily weight gain compared to the negative control group (RWG, %) were shown in Table 5 below.
3) Lesion scoring: On the 8th day after challenge inoculation, an autopsy was conducted for 6 broilers per cage, and the intestines were incised and opened. […]

[1] = test system: Eimeria tenella protozoan (sporozoite); experiment: Direct killing effect against Eimeria tenella protozoan (sporozoite), microscopic count of alive sporozoites; conditions: for concentration showing death rate of 50% or more against the protozoan: tested 16 to 500 ppm
Method: In the present example, protozoan (sporozoite) direct killing ability evaluation was conducted against 1 representative Eimeria kind known to be infected in most farms (E. tenella).
A certain amount of oocysts of each coccidial protozoan was put in a tube containing glass beads and pulverized, and then to remove the crushed oocyst cell wall and other debris, internal sporocysts were purified using the percoll density gradient, and washed with PBS solution. A reagent comprising sodium taurocholic acid (Sigma aldrich, USA) and trypsin (Gibco, USA), respectively, was treated to sporocysts of Eimeria tenella for excystation of the internal sporozoites, and they were incubated, and then they were washed with PBS solution once and the protozoa were obtained.
After reacting the pterostilbene, pinostilbene and anticoccidial agents, diclazuril and gallic acid (hereinafter, material) with the protozoan of Eimeria tenella at various concentrations of 16 to 500 ppm, respectively, only alive protozoa (sporozoites) were counted through microscopic observation.

Structure (SMILES): CC[C@@H](C(=O)[C@@H](C)[C@@H](O)[C@H](C)[C@@H]1O[C@@H]([C@@H](CC)C(=O)O)CC[C@@H]1C)[C@H]1O[C@]2(C=C[C@@H](O)[C@]3(CC[C@@](C)([C@H]4CC[C@](O)(CC)[C@H](C)O4)O3)O2)[C@H](C)C[C@@H]1C [Salinomycin, salinomycin, reference compound]
- Survival rate after challenge inoculation (%) (Eimeria tenella): 100%
- BWG after challenge inoculation (g/d) (Eimeria tenella): 360^cd g/d
- anticoccidial index (Eimeria tenella): 149 points
- ACI (Eimeria tenella): 149
- Lesion score (Eimeria tenella): 2.3^c
- Oocyst index (Eimeria tenella): 10
- Lesion index (Eimeria tenella): 23
- Daily weight gain compared to negative control group (RWG, %) (Eimeria tenella): 82%

Structure (SMILES): COc1cc(/C=C/c2ccc(O)cc2)cc(OC)c1 [Pterostilbene, 3,5-Dimethoxy-4′-hydroxystilbene]
- Survival rate after challenge inoculation (%) (Eimeria tenella): 100%
- BWG after challenge inoculation (g/d) (Eimeria tenella): 389^bc g/d
- anticoccidial index (Eimeria tenella): 151 points
- ACI (Eimeria tenella): 151
- Lesion score (Eimeria tenella): 2.8^b
- anticoccidial efficacy compared with salinomycin (Eimeria tenella): equivalent or superior
- Oocyst index (Eimeria tenella): 10
- Lesion index (Eimeria tenella): 28
- Daily weight gain compared to negative control group (RWG, %) (Eimeria tenella): 89%
- Protozoal death rate by material treatment concentration (%) ([1]; 16 ppm): 33.3%
- Protozoal death rate by material treatment concentration (%) ([1]; 32 ppm): 63.4%
- Protozoal death rate by material treatment concentration (%) ([1]; 62 ppm): 74.2%
- Protozoal death rate by material treatment concentration (%) ([1]; 125 ppm): 100%
- Protozoal death rate by material treatment concentration (%) ([1]; 250 ppm): 100%
- Protozoal death rate by material treatment concentration (%) ([1]; 500 ppm): 100%
- concentration showing death rate of 50% or more against the protozoan [1]: ≥ 32 ppm

Structure (SMILES): O=C(O)c1cc(O)c(O)c(O)c1 [Gallic acid, gallic acid, reference compound]
- Protozoal death rate by material treatment concentration (%) ([1]; 16 ppm): 0%
- Protozoal death rate by material treatment concentration (%) ([1]; 32 ppm): 0%
- Protozoal death rate by material treatment concentration (%) ([1]; 62 ppm): 0%
- Protozoal death rate by material treatment concentration (%) ([1]; 125 ppm): 0%
- Protozoal death rate by material treatment concentration (%) ([1]; 250 ppm): 26%
- Protozoal death rate by material treatment concentration (%) ([1]; 500 ppm): 32%

Structure (SMILES): COc1cc(O)cc(/C=C/c2ccc(O)cc2)c1 [Pinostilbene, 3-Methoxy-4′,5-dihydroxy-trans-stilbene]
- Protozoal death rate by material treatment concentration (%) ([1]; 16 ppm): 0%
- Protozoal death rate by material treatment concentration (%) ([1]; 32 ppm): 0%
- Protozoal death rate by material treatment concentration (%) ([1]; 62 ppm): 0%
- Protozoal death rate by material treatment concentration (%) ([1]; 125 ppm): 0%
- Protozoal death rate by material treatment concentration (%) ([1]; 250 ppm): 50.5%
- Protozoal death rate by material treatment concentration (%) ([1]; 500 ppm): 61.3%
- concentration showing death rate of 50% or more against the protozoan [1]: ≥ 250 ppm

Structure (SMILES): Oc1ccc(/C=C/c2cc(O)cc(O)c2)cc1 [Resveratrol]
- Survival rate after challenge inoculation (%) (Eimeria tenella): 100%
- BWG after challenge inoculation (g/d) (Eimeria tenella): 381^bcd g/d
- anticoccidial index (Eimeria tenella): 149 points
- ACI (Eimeria tenella): 149
- Lesion score (Eimeria tenella): 2.95
- anticoccidial efficacy compared with salinomycin (Eimeria tenella): equivalent or superior
- Oocyst index (Eimeria tenella): 10
- Lesion index (Eimeria tenella): 29
- Daily weight gain compared to negative control group (RWG, %) (Eimeria tenella): 87%

Structure (SMILES): N#CC(c1ccc(Cl)cc1)c1c(Cl)cc(-n2ncc(=O)[nH]c2=O)cc1Cl (stereo not shown) [Diclazuril, diclazuril, reference compound]
- Protozoal death rate by material treatment concentration (%) ([1]; 16 ppm): 0%
- Protozoal death rate by material treatment concentration (%) ([1]; 32 ppm): 0%
- Protozoal death rate by material treatment concentration (%) ([1]; 62 ppm): 0%
- Protozoal death rate by material treatment concentration (%) ([1]; 125 ppm): 0%
- Protozoal death rate by material treatment concentration (%) ([1]; 250 ppm): 35%
- Protozoal death rate by material treatment concentration (%) ([1]; 500 ppm): 44%
